Measurements: US20170105952A1, “HISTONE ACETYL TRANSFERASE ACTIVATORS AND HISTONE DEACETYLASE INHIBITORS IN THE TREATMENT OF ALCOHOLISM” (THE BOARD OF TRUSTEES OF THE UNIVERSITY OF ILLINOIS, priority 2006, published 2017)
“Also recorded” adds a separate entry of the source. Where two headings read alike, the source gives them in different places.

Assays:
[1] = tested on: HAT; conditions: Mantelingu et al 2007; cited from earlier work
[2] = target: p300 HAT (Homo sapiens, UniProt Q09472); conditions: Balasubramanyam et al 2003; cited from earlier work
[3] = tested on: HDAC; conditions: Balasubramanyam et al 2003; cited from earlier work
[4] = tested on: ethanol-withdrawn SD rats; test: Elevated-plus maze (EPM) test of anxiety-like behaviors in ethanol-withdrawn rats; format: in vivo
Description: The effect of HDAC inhibition on anxiety-like behaviors of ethanol-withdrawn SD rats after chronic ethanol exposure was assayed using the class I and class II HDAC inhibitor trichostatin A (TSA). SD rats were fed with control or ethanol liquid diet, and ethanol-fed rats were withdrawn for 24 hours as described previously (Pandey et al, Alcohol Clin. Exp. Res. 27:396-409, 2003). Ethanol-withdrawn and control rats were treated with TSA or vehicle (1:5 dilution of DMSO with phosphate-buffered saline) two hours before measuring anxiety-like behaviors using the elevated-plus maze (EPM) test. The EPM is a cross-shaped elevated apparatus consisting of two open arms and two closed arms arranged directly opposite each other and connected to a central platform. To measure anxiety-like behaviors, a test rat was habituated for five-minutes in the test room and then placed on the central platform facing an open arm. The number of entries to each type of arm over a five-minute period was observed and recorded. EPM test results were reported as the mean±SEM of the percent of open-arm entries and the percent of time spent on the open arms. These collectively are referred to as open-arm activity. The general activity of each rat was measured by calculating the sum of open- and closed-arm entries. In the EPM test, ethanol withdrawal after chronic ethanol exposure produced increased anxiety-like behaviors as measured by a reduction in open-arm activities. […]
The effect of Sir-2 inhibition on anxiety-like behaviors in ethanol-withdrawn SD rats after chronic ethanol exposure was assayed by central amygdaloid infusion of the Sir-2 inhibitor, sirtinol. […] Sirtinol (0.5 μl of 25 μM sirtinol) or vehicle (0.5 μl of 0.3% DMSO diluted with artificial CSF) was infused into the CeA of ethanol-withdrawn and control rats, and anxiety was measured after two hours. Anxiety-like behaviors in rats were then measured in the EPM test. […]

[5] = tested on: ethanol-withdrawn SD rats; test: Light/dark box exploration test of anxiety-like behaviors in ethanol-withdrawn rats; format: in vivo
[6] = tested on: HDAC activity in the amygdala; test: HDAC activity in the amygdala of ethanol-withdrawn rats; format: in vivo
Description: The effect on HDAC activity in the amygdala of ethanol-withdrawn SD rats after chronic ethanol exposure was measured. SD rats were fed with control or ethanol liquid diet, and ethanol-fed rats were withdrawn for 24 hours. Ethanol-withdrawn and control rats were treated with TSA or vehicle two hours before measuring HDAC activity. Ethanol withdrawal after chronic ethanol exposure produced an increase in HDAC activity in the amygdala of rats.
The effect on HDAC activity in the amygdala of ethanol-withdrawn SD rats after chronic ethanol exposure was measured. SD rats were fed with control or ethanol liquid diet, and ethanol-fed rats were withdrawn for 24 hours. […] Two hours after injections, brains were collected to measure HDAC activity. The nuclear and cytosolic fractions of amygdala were prepared and HDAC activities were measured using an HDAC ELISA kit. Ethanol withdrawal after chronic ethanol exposure produced an increase in nuclear, but not cytosolic, HDAC activity in the amygdala of rats.

[7] = tested on: acetylated histone H3; test: Acetylated histone H3 protein levels in amygdaloid structures of ethanol-withdrawn rats (gold-immunolabeling); format: in vivo; conditions: for histone H3-K9 acetylation: SAHA 50 mg/kg intraperitoneally, FIG. 3
Description: (§1) The effect of HDAC inhibition on acetylated histone H3, CBP, and Sir-2 (HDAC III) level in ethanol-withdrawn SD rats after chronic ethanol exposure was assayed using trichostatin A (TSA). SD rats were fed control or ethanol liquid diet, and ethanol-fed rats were withdrawn for 24 hours. Ethanol-withdrawn and control rats were treated with TSA or vehicle, and protein levels were measured in amygdaloid structures by gold-immunolabeling. In the CeA and MeA, but not in the BLA, ethanol withdrawal produced significant reductions in protein levels of acetylated histone H3 and CBP-HAT, and produced an increase in protein levels of Sir-2. […] Thus, histone acetylation is normalized by TSA treatment due to inhibition of HDAC activity.
In the CeA and MeA, but not in the BLA, ethanol withdrawal produced significant reductions in protein levels of acetylated histone H3-K9.

[8] = tested on: Limk1; test: Limk1 protein levels in amygdaloid structures of ethanol-withdrawn rats (gold-immunolabeling); format: in vivo; conditions: SAHA 50 mg/kg intraperitoneally, decrease seen in CeA and MeA, FIG. 5
Description: The effect on protein levels of Limk1 in the amygdala of ethanol-withdrawn SD rats after chronic ethanol exposure was measured. SD rats were fed with control or ethanol liquid diet, and ethanol-fed rats were withdrawn for 24 hours. […] Brains were collected after perfusion for Limk1 protein level measurement. Protein levels were measured in amygdaloid structures by gold-immunolabeling. Ethanol withdrawal, but not ethanol treatment, produced significant decreases in protein levels of Limk1 in the CeA and MeA, but not in the BLA.

[9] = tested on: CBP; test: CBP protein levels in amygdaloid structures of ethanol-withdrawn rats (gold-immunolabeling); format: in vivo; conditions: TSA
Description: as §1

[10] = tested on: Sir-2 (HDAC III); test: Sir-2 protein levels in amygdaloid structures of ethanol-withdrawn rats (gold-immunolabeling); format: in vivo; conditions: TSA
Description: as §1

[11] = tested on: NPY; test: NPY mRNA and protein levels in amygdaloid structures of ethanol-withdrawn rats; format: in vivo; conditions: TSA, reduction seen in CeA and MeA
Description: The effect of HDAC inhibition on NPY mRNA and protein levels in ethanol-withdrawn SD rats after chronic ethanol exposure was also assayed using trichostatin A (TSA). SD rats were fed control or ethanol liquid diet, and ethanol-fed rats were withdrawn for 24 hours. Ethanol-withdrawn and control rats were treated with TSA or vehicle, and mRNA and protein levels were measured in amygdaloid structures. In the CeA and MeA, but not in the BLA, ethanol withdrawal produced significant reductions in both mRNA and protein levels of NPY. […] Thus, NPY expression is also normalized by TSA treatment during ethanol withdrawal after chronic ethanol exposure.

[12] = tested on: alcohol-preferring (P) rats; test: Two-bottle voluntary alcohol intake in alcohol-preferring rats; format: in vivo; conditions: TSA 2 mg/kg intraperitoneal daily, last three days of 9% alcohol drinking
Description: (§2) The effect of HDAC inhibition on the alcohol consumption of alcohol-preferring (P) and non-preferring (NP) rats was assayed. Selective breeding has produced the P and NP rat lines with high and low alcohol preference, respectively (Li T. K, Lumeng L, Doolittle D P, Behav. Genet. 23:163-170, 1993; McKinzie D L, Nowak K L, Murphy J M, Li T K, Lumeng L, McBride W J, Alcohol Clin. Exp. Res. 22:1584-1590, 1998). P and NP rats were habituated to drink water equally from two bottles. One bottle was then replaced with 7% ethanol for the first three days and 9% ethanol for the next seven days. During the last three days of 9% alcohol drinking, rats were treated with TSA daily (2 mg/kg intraperitoneal injection). […] As a result of the large reduction in voluntary alcohol consumption by the alcohol-preferring animal model when treated with an HDAC inhibitor, it is expected that HDAC inhibitors also prevent the development of alcohol dependence.

[13] = tested on: non-preferring (NP) rats; test: Two-bottle voluntary alcohol intake in non-preferring rats; format: in vivo; conditions: TSA 2 mg/kg intraperitoneal daily, last three days of 9% alcohol drinking
Description: as §2

[14] = tested on: class I and class II HDACs; conditions: Yoshida et al 1990; cited from earlier work
[15] = tested on: HDACs in the amygdala; conditions: ethanol 1 g/kg intraperitoneal injection, after one hour
Description: (§3) The effect of acute ethanol exposure on HDAC activity, histone acetylation level, and CBP level was measured in Sprague-Dawley (SD) rats. Rats were injected with ethanol (1 g/kg intraperitoneal injection) or n-saline, and after one hour, anxiolytic responses were measured. […] The amygdala was then dissected out, and HDAC activity was measured.

[16] = tested on: Sprague-Dawley (SD) rats; conditions: ethanol 1 g/kg intraperitoneal injection vs n-saline, after one hour
Description: as §3

[17] = tested on: CBP; conditions: acute ethanol vs n-saline
Description: (§4) The protein levels of acetylated histone H3, acetylated histone H4, and CBP in the CeA structures of n-saline- or acute ethanol-treated rats were measured by immunohistochemistry.

[18] = tested on: acetylated histone H3; conditions: acute ethanol vs n-saline
Description: as §4

[19] = tested on: acetylated histone H4; conditions: acute ethanol vs n-saline
Description: as §4

[20] = tested on: Sir-2; conditions: Landry et al 2000; Blander et al 2004; cited from earlier work

p300 HAT, sequence (Q09472 whole entry, species assumed): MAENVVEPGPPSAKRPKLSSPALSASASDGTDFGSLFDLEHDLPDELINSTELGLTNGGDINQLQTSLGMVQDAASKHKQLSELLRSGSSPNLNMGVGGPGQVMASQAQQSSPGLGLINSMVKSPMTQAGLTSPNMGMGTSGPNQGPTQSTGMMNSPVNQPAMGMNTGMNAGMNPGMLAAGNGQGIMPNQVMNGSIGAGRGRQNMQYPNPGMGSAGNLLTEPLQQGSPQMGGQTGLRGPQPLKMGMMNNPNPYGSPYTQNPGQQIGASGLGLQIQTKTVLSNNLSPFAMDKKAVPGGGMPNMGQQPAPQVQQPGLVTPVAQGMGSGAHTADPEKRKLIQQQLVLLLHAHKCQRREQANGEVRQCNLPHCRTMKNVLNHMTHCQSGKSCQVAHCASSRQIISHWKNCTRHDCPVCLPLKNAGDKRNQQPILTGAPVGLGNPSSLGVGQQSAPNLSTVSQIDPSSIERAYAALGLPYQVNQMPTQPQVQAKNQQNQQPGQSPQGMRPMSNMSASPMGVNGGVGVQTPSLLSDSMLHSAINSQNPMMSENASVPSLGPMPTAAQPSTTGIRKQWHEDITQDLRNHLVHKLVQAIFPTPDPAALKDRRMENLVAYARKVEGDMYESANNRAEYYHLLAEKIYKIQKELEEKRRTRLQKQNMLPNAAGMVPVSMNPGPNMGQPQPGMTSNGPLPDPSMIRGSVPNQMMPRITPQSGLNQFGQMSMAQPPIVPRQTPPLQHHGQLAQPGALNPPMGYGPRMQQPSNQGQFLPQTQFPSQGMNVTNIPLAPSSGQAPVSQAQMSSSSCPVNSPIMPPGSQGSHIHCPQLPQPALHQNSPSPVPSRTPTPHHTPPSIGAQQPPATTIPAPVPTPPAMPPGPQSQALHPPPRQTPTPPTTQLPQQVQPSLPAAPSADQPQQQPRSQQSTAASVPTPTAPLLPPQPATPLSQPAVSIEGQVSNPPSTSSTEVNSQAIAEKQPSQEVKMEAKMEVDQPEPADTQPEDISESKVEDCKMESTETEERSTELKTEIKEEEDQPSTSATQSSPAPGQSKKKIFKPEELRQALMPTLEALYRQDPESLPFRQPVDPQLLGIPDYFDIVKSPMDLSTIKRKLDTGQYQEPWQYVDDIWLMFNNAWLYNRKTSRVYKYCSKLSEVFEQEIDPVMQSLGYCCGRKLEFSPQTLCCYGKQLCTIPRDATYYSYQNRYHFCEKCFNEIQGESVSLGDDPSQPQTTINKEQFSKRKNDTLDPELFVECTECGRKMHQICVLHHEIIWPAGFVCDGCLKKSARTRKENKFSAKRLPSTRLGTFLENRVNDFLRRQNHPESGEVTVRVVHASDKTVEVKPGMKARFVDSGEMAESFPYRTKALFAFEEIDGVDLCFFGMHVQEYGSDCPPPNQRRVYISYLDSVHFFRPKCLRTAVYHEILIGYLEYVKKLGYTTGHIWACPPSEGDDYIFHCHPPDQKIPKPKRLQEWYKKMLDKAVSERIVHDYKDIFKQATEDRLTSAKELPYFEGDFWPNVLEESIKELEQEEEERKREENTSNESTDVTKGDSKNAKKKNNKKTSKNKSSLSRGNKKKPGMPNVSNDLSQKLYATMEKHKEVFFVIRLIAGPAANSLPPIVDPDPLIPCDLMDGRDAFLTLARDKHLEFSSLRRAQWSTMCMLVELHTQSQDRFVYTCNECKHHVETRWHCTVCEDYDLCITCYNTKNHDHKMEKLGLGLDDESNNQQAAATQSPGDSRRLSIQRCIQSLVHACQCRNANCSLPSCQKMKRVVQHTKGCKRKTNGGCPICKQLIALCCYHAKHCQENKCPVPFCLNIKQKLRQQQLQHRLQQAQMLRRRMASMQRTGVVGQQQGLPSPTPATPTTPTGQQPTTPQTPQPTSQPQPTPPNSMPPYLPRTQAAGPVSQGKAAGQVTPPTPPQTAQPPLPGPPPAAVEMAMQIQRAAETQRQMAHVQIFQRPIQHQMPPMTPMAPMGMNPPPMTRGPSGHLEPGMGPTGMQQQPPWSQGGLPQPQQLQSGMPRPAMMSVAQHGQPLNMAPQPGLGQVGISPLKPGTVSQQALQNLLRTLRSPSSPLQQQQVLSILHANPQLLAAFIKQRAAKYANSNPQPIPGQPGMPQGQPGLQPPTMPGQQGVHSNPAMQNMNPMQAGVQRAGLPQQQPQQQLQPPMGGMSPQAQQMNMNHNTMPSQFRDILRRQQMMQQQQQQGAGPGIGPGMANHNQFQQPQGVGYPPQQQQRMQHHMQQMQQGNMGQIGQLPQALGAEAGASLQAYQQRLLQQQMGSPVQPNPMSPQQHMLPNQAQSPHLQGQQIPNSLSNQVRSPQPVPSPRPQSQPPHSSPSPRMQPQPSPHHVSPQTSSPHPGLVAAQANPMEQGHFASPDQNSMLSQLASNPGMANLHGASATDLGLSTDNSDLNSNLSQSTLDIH

SMILES: CCOc1ccccc1C(=O)Nc1ccc(Cl)c(C(F)(F)F)c1 [CTB, N-(4-chloro-3-trifluoromethyl-phenyl)-2-ethoxy-benzamide]
- HAT activation [1]: HAT activators

SMILES: CCCCCCCCCCCCCCCc1cccc(OCC)c1C(=O)Nc1ccc(Cl)c(C(F)(F)F)c1 [CTPB, N-(4-chloro-3-trifluoromethyl-phenyl)-2-ethoxy-6-pentadecyl-benzamide]
- p300 HAT activity [2]: activate p300 HAT activity
- HDAC activity [3]: without affecting HDAC activity

SMILES: O=C(CCCCCCC(=O)Nc1ccccc1)NO [SAHA, suberoylanilide hydroxamic acid]
- anxiety-like behaviors (open-arm activity) in EPM test ([4]; SAHA 50 mg/kg intraperitoneally, 24 hours ethanol withdrawal, FIG. 1B): prevented these anxiety-like behaviors
- anxiety-like behaviors (time spent in the light box) ([5]; SAHA 50 mg/kg intraperitoneally, 24 hours ethanol withdrawal, FIG. 1A): significantly reduced these anxiety-like behaviors
- withdrawal-induced increase in nuclear HDAC activity in the amygdala ([6]; SAHA 50 mg/kg intraperitoneally, two hours after injection, nuclear fraction, HDAC ELISA kit, FIG. 2): attenuated this increase in nuclear HDAC activity
- histone H3-K9 acetylation ([7]; BLA): had no effects on histone H3-K9 acetylation
- histone H3-K9 acetylation ([7]; CeA and MeA): corrected the deficits in histone H3-K9 acetylation
- Limk1 protein levels [8]: normalized Limk1 levels

SMILES: CC(/C=C/C(=O)NO)=C\[C@@H](C)C(=O)c1ccc(N(C)C)cc1 [TSA, trichostatin A]
- anxiety-like behaviors (open-arm activity) in EPM test ([4]; TSA two hours before test, 24 hours ethanol withdrawal after chronic ethanol): restored these anxiety-like behaviors to normal levels; also recorded: prevented the development of anxiety-like behaviors
- anxiety-like behaviors (time spent in the light box) ([5]; TSA, 24 hours ethanol withdrawal after chronic ethanol): significantly reduced these anxiety-like behaviors
- withdrawal-induced increase in HDAC activity in the amygdala ([6]; TSA two hours before measurement, 24 hours ethanol withdrawal): completely prevented this increase in HDAC activity; also recorded: normalized the increase in HDAC activity
- acetylated histone H3 levels ([7]; TSA, reduction seen in CeA and MeA): rescued acetylated histone H3 levels; also recorded: normalized the reduction in acetylation of histone H3
- CBP levels [9]: did not modulate CBP and Sir-2 levels
- Sir-2 levels [10]: did not modulate CBP and Sir-2 levels
- NPY mRNA and protein levels [11]: restored NPY levels to normal; also recorded: normalized the reduction in NPY expression
- alcohol intake [12]: significantly attenuated the alcohol intake
- alcohol intake [13]: not in low alcohol-drinking NP rats
- inhibition of class I and class II HDACs [14]: potently inhibits class I and class II HDACs

SMILES: CCO [ethanol]
- inhibition of HDAC activity in the amygdala compared to n-saline-treated rats [15]: 36%
- anxiolytic responses [16]: anxiolytic effects
- protein level of CBP ([17]; BLA): not in basolateral amygdaloid (BLA) structures
- protein level of CBP ([17]; CeA): increased protein levels
- protein level of CBP ([17]; MeA): increased protein levels
- protein level of acetylated histone H3 ([18]; BLA): not in basolateral amygdaloid (BLA) structures
- protein level of acetylated histone H3 ([18]; CeA): increased protein levels
- protein level of acetylated histone H3 ([18]; MeA): increased protein levels
- protein level of acetylated histone H4 ([19]; CeA): increased protein levels
- protein level of acetylated histone H4 ([19]; MeA): increased protein levels

SMILES: CC(NC(=O)c1ccccc1/N=C/c1c(O)ccc2ccccc12)c1ccccc1 (stereo not shown) [sirtinol]
- anxiety-like behaviors (open-arm activity) in EPM test ([4]; 0.5 μl of 25 μM sirtinol infused into the CeA, two hours before test, 24 hours ethanol withdrawal): development of these anxiety-like behaviors was prevented
- inhibition of Sir-2 [20]: specific inhibitor of Sir-2
